Laboratory results from publication PMC8707461, “In Vitro and In Vivo Inhibition of MATE1 by Tyrosine Kinase Inhibitors” (Pharmaceutics, 2021).
Values joined by “and” are separate entries in the source; they are usually repeats but may differ in a detail not shown here. Equal entries are not always repeated. Where two headings read alike, the source gives them in different places.

What was measured:
[1] = target: T1, MATE1 (Homo sapiens, UniProt Q96FL8); test: [14C]TEA uptake in HEK293 cells overexpressing human MATE1; settings: for inhibition of MATE1-mediated uptake of TEA (in words): TKI 10 µM; for inhibition at 10 µM: human
T1 sequence (Q96FL8 1-570): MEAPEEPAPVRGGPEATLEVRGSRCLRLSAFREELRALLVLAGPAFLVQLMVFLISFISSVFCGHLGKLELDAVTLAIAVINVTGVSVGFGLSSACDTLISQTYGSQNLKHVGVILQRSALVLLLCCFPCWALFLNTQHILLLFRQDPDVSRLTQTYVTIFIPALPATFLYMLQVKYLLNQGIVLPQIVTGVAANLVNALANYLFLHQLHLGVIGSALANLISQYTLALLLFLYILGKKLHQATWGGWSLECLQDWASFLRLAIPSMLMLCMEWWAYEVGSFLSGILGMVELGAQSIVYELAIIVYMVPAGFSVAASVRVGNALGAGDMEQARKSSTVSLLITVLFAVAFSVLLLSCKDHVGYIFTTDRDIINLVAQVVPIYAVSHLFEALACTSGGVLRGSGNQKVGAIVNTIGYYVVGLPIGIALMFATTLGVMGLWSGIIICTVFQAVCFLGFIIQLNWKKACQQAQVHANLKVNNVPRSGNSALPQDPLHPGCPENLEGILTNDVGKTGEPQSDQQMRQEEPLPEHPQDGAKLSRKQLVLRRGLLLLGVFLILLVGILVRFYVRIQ
Method: (§1) Uptake experiments in HEK293 cells overexpressing mouse (m) and human (h) OCT2 or MATE1 were performed with radiolabeled tetraethylammonium (TEA) as the model substrate, using standard methods in the presence or absence of TKIs. The cell culture and uptake conditions for cells expressing mMATE1 or hMATE1 were described previously. […] Since the inhibitory potential of various xenobiotics against OCT2 and MATE1 is dependent on preincubation with perpetrator drugs, a 15-min preincubation period with the TKIs was employed unless stated otherwise. All results were normalized to uptake values in cells transfected with an empty vector or DMSO-treated groups.
(§2) MATE1-overexpressed cells were pre-incubated with transport media containing 30 mM ammonium chloride for 20 min at 37 °C following previously published protocol (pH 7.4 for hMATE1 [17, 18, 19] and pH 8.4 for mMATE1 [20, 21]) to ensure interactions can be evaluated between outward-facing MATE1 and substrate uptake before adding inhibitors. Then, preincubation media was removed and cells were incubated with transport media (NH4Cl free) containing radiolabeled compounds. […] The uptake of TEA and metformin was measured by liquid scintillation counting, as described previously. For uptake studies involving platinum drugs, cells were collected with TrypLE, and the pellets were lysed overnight in 0.2% nitric acid. After sonication, total platinum levels were determined by flameless atomic absorption spectrometry.

[2] = target: T2, human OCT2 (Homo sapiens, UniProt O15244); test: [14C]TEA uptake in HEK293 cells stably transfected with human OCT2; type: cell-based; settings: TKI 10 µM
T2 construct: host or cells: HEK293 (Flp-In system, pcDNA5/FRT)
T2 sequence (O15244 1-555): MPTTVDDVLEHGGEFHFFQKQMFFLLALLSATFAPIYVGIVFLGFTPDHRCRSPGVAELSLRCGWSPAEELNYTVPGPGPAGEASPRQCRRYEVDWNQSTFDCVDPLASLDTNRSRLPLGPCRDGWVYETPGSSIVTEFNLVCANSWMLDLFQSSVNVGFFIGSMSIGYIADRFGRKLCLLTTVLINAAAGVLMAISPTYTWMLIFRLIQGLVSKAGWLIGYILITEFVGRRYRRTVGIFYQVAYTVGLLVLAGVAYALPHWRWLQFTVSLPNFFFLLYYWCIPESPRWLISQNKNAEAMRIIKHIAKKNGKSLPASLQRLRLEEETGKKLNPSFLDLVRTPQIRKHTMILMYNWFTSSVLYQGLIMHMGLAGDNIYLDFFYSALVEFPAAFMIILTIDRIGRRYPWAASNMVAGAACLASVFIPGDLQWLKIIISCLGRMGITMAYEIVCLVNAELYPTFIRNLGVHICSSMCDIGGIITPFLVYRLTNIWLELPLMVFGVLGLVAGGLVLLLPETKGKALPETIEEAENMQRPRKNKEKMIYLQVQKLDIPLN
Method: as §1, §2

[3] = system: MATE1; settings: cited from earlier work
[4] = system: MATE1 gene; test: MATE1 gene expression by RT-PCR in MATE1-overexpressing cells exposed to TKIs; type: cell-based, human
Source text: RNA was extracted using the Qiagen kit from treated cells in 12-well plates or kidney tissues obtained from untreated or treated mice. Taqman primers Hs00217320_m1 and Mm00840361_m1 were obtained from Thermo Fisher Scientific (Waltham, MA, USA) and used for the hMATE1 and mMATE1 genes. The primers Hs02786624_g1 and Mm99999915_g1 were used as the house-keeping control genes for hGAPDH and mGAPDH, respectively.

[5] = system: human OCT2, or MATE1 transporters; settings: dasatinib 10 µM, oxaliplatin 50 µM
Method: as §1
as §2, with “For uptake studies involving platinum drugs, cells were collected with TrypLE, and the pellets were lysed overnight in 0.2% nitric acid.” left out

[6] = system: mouse OCT2, or MATE1 transporters; settings: dasatinib 10 µM, oxaliplatin 50 µM
Method: as §1
as §2, with “For uptake studies involving platinum drugs, cells were collected with TrypLE, and the pellets were lysed overnight in 0.2% nitric acid.” left out

[7] = system: MATE1; test: Plasma N-methylnicotinamide (NMN) as MATE1 biomarker in mice after dasatinib; type: in vivo, mouse; settings: wild-type mice, dasatinib 15 mg/kg oral
[8] = parameters: method as in PMID 18787054; settings: cited from earlier work
[9] = target: T3, mouse MATE1 (Mus musculus, UniProt Q8K0H1); test: cell-based
T3 sequence (Q8K0H1 1-567): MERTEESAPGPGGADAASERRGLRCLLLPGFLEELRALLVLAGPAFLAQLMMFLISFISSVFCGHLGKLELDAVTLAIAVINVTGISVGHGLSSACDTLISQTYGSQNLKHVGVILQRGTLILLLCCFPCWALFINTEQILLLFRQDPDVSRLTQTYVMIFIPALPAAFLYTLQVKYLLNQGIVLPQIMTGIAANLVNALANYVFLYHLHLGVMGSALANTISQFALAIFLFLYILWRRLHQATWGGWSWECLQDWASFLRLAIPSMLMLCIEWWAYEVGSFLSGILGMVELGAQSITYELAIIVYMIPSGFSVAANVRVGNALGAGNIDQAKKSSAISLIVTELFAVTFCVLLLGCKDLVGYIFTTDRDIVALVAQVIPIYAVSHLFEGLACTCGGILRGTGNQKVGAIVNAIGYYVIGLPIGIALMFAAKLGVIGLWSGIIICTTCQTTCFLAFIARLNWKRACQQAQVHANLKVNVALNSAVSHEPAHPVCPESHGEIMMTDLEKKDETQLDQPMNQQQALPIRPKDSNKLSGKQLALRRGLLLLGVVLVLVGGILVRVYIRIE
Method: as §1, §2

[10] = Murine plasma pharmacokinetics of total platinum; type: in vivo, mouse
Source text: For pharmacokinetic studies, plasma and tissue samples were collected from male wild-type mice (8–12 weeks old), and age-matched MATE1-deficient [MATE1(−/−)] mice, and mice additionally deficient for OCT1 and OCT2 [OCT1/2/MATE1(−/−)], following an established protocol. All animals were backcrossed on an FVB strain, were given a standard diet and water ad libitum, and housed and handled in accordance with the University Laboratory Animal Resources (ULAR) Animal Care and Use Committee at The Ohio State University (2015A00000101-R1). […] Concentrations of total platinum in plasma and tissues were measured by flameless atomic absorption spectrometry, as previously reported, by interpolation of unknown readings on linear calibration curves prepared in drug-free nitric acid (0.2%) using linear-least squares regression analysis.

[11] = Human plasma pharmacokinetics of total platinum, patient with colorectal cancer; type: in vivo; settings: oxaliplatin 85 mg/m2 i.v. infusion
Method: In order to assess the degree of MATE1 inhibition by dasatinib, analyses of N-methylnicotinamide (see below) were performed in plasma samples collected at serial time points (up to 24 h after the end of infusion). Plasma samples were also subjected to dasatinib analysis by liquid chromatography with tandem mass spectrometric detection (LC-MS/MS) and analyzed for total platinum levels by flameless atomic absorption spectrometry. The study protocol (ClinicalTrial.gov Identifier: NCT04164069) was approved by the institutional review board of the -The Ohio State University Comprehensive Cancer Center (OSU IRB #2019C0141, approval date 01 March 2019), and the patient provided written informed consent prior to enrollment.

[12] = Urinary excretion of oxaliplatin in mice (metabolic cages); type: in vivo, mouse; settings: mice deficient in MATE1 or both OCT2 and MATE1 vs wild-type; oxaliplatin 10 mg/kg i.p.
[13] = cited from earlier work
[14] = HEK293 cells overexpressing human MATE1, pH 7.4, probe [14C]TEA (tetraethylammonium), 2 µM
[15] = publicly available information, ref FDA/EMA or supplement refs 1-8
[16] = Mouse IC50, HEK293 cells overexpressing mouse MATE1
[17] = OCT1,2/MATE1-/- mice + dasatinib 15 mg/kg p.o. pretreatment, oxaliplatin 10 mg/kg i.p.
[18] = OCT1,2/MATE1-/- mice, cisplatin 15 mg/kg i.p. or oxaliplatin 10 mg/kg i.p.
[19] = wild-type mice + dasatinib 15 mg/kg p.o. pretreatment, oxaliplatin 10 mg/kg i.p.
[20] = wild-type mice, cisplatin 15 mg/kg i.p. or oxaliplatin 10 mg/kg i.p.
[21] = dasatinib pre-treatment 100 mg p.o.

COc1cc(Nc2c(C#N)cnc3cc(OCCCN4CCN(C)CC4)c(OC)cc23)c(Cl)cc1Cl [Bosutinib]
inhibition of MATE1-mediated uptake of TEA (in words) [1]: potently inhibiting
inhibition at 10 µM [1, 14]: 99.2%
influence on OCT2 function (in words) [2]: potently inhibiting
IC50 [3, 15]: < 10 µM

Cc1nc(Nc2ncc(C(=O)Nc3c(C)cccc3Cl)s2)cc(N2CCN(CCO)CC2)n1 [Dasatinib]
inhibition of MATE1-mediated uptake of TEA (in words) [1]: completely inhibited
inhibition at 10 µM [1, 14]: 95.4%
expression of MATE1 (in words) [4]: downregulated
suppression of MATE1 gene expression [4]: ~ 50%
ability of cells to transport oxaliplatin after dasatinib pre-treatment (in words) [5]: dramatically impaired
ability of cells to transport oxaliplatin after dasatinib pre-treatment (in words) [6]: dramatically impaired
plasma levels of NMN (in words) [7]: transient, statistically significant increase

C=CC(=O)N1CCC[C@@H](n2nc(-c3ccc(Oc4ccccc4)cc3)c3c(N)ncnc32)C1 [Ibrutinib]
IC50 [1]: 1.03 µM
inhibition at 10 µM ([1]; pH 7.4): 91.8%
IC50 [9]: 51.5 µM

Cc1cn(-c2cc(NC(=O)c3ccc(C)c(Nc4nccc(-c5cccnc5)n4)c3)cc(C(F)(F)F)c2)cn1 [Nilotinib]
inhibition at 10 µM [1, 14]: 95.7%
IC50 [9, 16]: 45.4 µM and 45.3 µM
expression of MATE1 (in words) [4]: downregulated

O=C1[O][Pt]2([NH][C@@H]3CCCC[C@H]3[NH]2)[O]C1=O [Oxaliplatin]
AUC [10, 17]: 7530 ± 900 ng·h/mL
Cmax [10, 17]: 3860 ± 10 ng/mL
AUC [10, 18]: 10500 ± 10 ng·h/mL
Cmax [10, 18]: 3610 ± 180 ng/mL
AUC [10, 19]: 12200 ± 710 ng·h/mL
Cmax [10, 19]: 4800 ± 10 ng/mL
plasma pharmacokinetic profile after dasatinib pretreatment (in words) ([10]; wild-type mice, single dose of dasatinib 15 mg/kg): unchanged
AUC [10, 20]: 10700 ± 1000 ng·h/mL
Cmax [10, 20]: 2760 ± 40 ng/mL
AUC [11, 21]: 11600 ng·h/mL
Cmax [11, 21]: 870 ng/mL
AUC ([11]; without dasatinib): 11300 ng·h/mL
Cmax ([11]; without dasatinib): 960 ng/mL
reduction of urinary excretion [12]: about 2 fold
fecal excretion [13]: about 2 % of the dose
urinary excretion [13]: > 50 % of the dose

CNC(=O)c1cc(Oc2ccc(NC(=O)Nc3ccc(Cl)c(C(F)(F)F)c3)c(F)c2)ccn1 [Regorafenib]
inhibition at 10 µM [1, 14]: 72.1%
influence on OCT2 function (in words) [2]: no influence
IC50 [3, 15]: < 10 µM

CNC(=O)c1cc(Oc2ccc(NC(=O)Nc3ccc(Cl)c(C(F)(F)F)c3)cc2)ccn1 [Sorafenib]
inhibition at 10 µM [1, 14]: 83.8%
influence on OCT2 function (in words) [2]: no influence

CCN(CC)CCNC(=O)c1c(C)[nH]c(/C=C2\C(=O)Nc3ccc(F)cc32)c1C [Sunitinib]
inhibition of MATE1-mediated uptake of TEA (in words) [1]: potently inhibiting
inhibition at 10 µM ([1]; pH 7.4): 98%
influence on OCT2 function (in words) [2]: potently inhibiting

CN/C(=N/CCSCc1nc[nH]c1C)NC#N [cimetidine]
IC50 [9, 16]: > 50 µM
